Measurements as given in ChEMBL document CHEMBL3885861, “Open TG-GATES”.

Organism: Rattus norvegicus
Assay: Open TG-GATES - Regimen: Daily Repeat
Type: toxicity, organism-based, Sprague-Dawley
Parameters: regimen Daily Repeat, gender Male, age 6 weeks
Settings: in vivo, po, 0 mg/kg, route gavage, dose level Control; for APTT / Bas / Eos / Fbg / Hb / Ht / Lym / MCH / MCHC / MCV / Mono / Neu / PT / Plat / RBC / Ret / WBC: tissue Blood; for ALP / ALT / AST / BUN / CRE / DBIL / GLC / IP / K / Na / PL / RALB / TBIL / TC / TG / TP / gamma-GTP: tissue Plasma

`NS(=O)(=O)c1cc(C(=O)O)c(NCc2ccco2)cc1Cl` [FUROSEMIDE] was tested, and the TERMINAL_BW (72 h, time 3 day) was 240.2 g, the APTT (72 h, time 3 day) was 15.8 s and the Bas (72 h, time 3 day) was 0.2%. The Eos (72 h, time 3 day) was 1%, the Fbg (72 h, time 3 day) was 306 mg/dL and the Hb (72 h, time 3 day) was 13.5 g/dL. It also gave a Ht (72 h, time 3 day) of 40.3%, a Lym (72 h, time 3 day) of 73.8% and an MCH (72 h, time 3 day) of 21.5 pg. It also gave an MCHC (72 h, time 3 day) of 33.6%, an MCV (72 h, time 3 day) of 64.1 fL and a Mono (72 h, time 3 day) of 3.2%. For the same molecule, the Neu (72 h, time 3 day) was 21.2%, the PT (72 h, time 3 day) was 14.8 s and the Plat (72 h, time 3 day) was 114.8 x10_4/uL. For the same molecule, the RBC (72 h, time 3 day) was 629.2 x10_4/ul, the Ret (72 h, time 3 day) was 6.5% and the WBC (72 h, time 3 day) was 92.7 x10_2/uL. It also gave an ALP (72 h, time 3 day) of 1396.2 IU/L, an ALT (72 h, time 3 day) of 42 IU/L and an AST (72 h, time 3 day) of 66.2 IU/L. It also gave a BUN (72 h, time 3 day) of 14.4 mg/dL, a CRE (72 h, time 3 day) of 0.2 mg/dL and a DBIL (72 h, time 3 day) of 0.016 mg/dL. For the same molecule, the GLC (72 h, time 3 day) was 180.2 mg/dL, the IP (72 h, time 3 day) was 7.7 mg/dL and the K (72 h, time 3 day) was 3.8 meq/L. For the same molecule, the Na (72 h, time 3 day) was 142.6 meq/L, the PL (72 h, time 3 day) was 182 mg/dL and the RALB (72 h, time 3 day) was 2.7 g/dL. The TBIL (72 h, time 3 day) was 0.056 mg/dL, the TC (72 h, time 3 day) was 91 mg/dL and the TG (72 h, time 3 day) was 130 mg/dL. For the same molecule, the TP (72 h, time 3 day) was 5.8 g/dL, the gamma-GTP (72 h, time 3 day) was 0.4 IU/L and the TERMINAL_BW ([…], time 7 day) was 280.2 g. It also gave a TERMINAL_BW ([…], time 14 day) of 327.8 g, a TERMINAL_BW ([…], time 28 day) of 406.3 g and an APTT ([…], time 7 day) of 17.8 s. It also gave a Bas ([…], time 7 day) of 0.6%, an Eos ([…], time 7 day) of 1% and a Fbg ([…], time 7 day) of 294.2 mg/dL. For the same molecule, the Hb ([…], time 7 day) was 13.7 g/dL, the Ht ([…], time 7 day) was 39.9% and the Lym ([…], time 7 day) was 80.2%. For the same molecule, the MCH ([…], time 7 day) was 21.2 pg, the MCHC ([…], time 7 day) was 34.5% and the MCV ([…], time 7 day) was 61.5 fL. It also gave a Mono ([…], time 7 day) of 2.6%, a Neu ([…], time 7 day) of 14.8% and a PT ([…], time 7 day) of 15.5 s. It also gave a Plat ([…], time 7 day) of 125.8 x10_4/uL, an RBC ([…], time 7 day) of 648.6 x10_4/ul and a Ret ([…], time 7 day) of 5.2%. The WBC ([…], time 7 day) was 100.8 x10_2/uL, the APTT ([…], time 14 day) was 19.3 s and the Bas ([…], time 14 day) was 0.4%. For the same molecule, the Eos ([…], time 14 day) was 1%, the Fbg ([…], time 14 day) was 289.4 mg/dL and the Hb ([…], time 14 day) was 15 g/dL. For the same molecule, the Ht ([…], time 14 day) was 43.1%, the Lym ([…], time 14 day) was 81% and the MCH ([…], time 14 day) was 21 pg. For the same molecule, the MCHC ([…], time 14 day) was 34.7%, the MCV ([…], time 14 day) was 60.4 fL and the Mono ([…], time 14 day) was 2.8%. For the same molecule, the Neu ([…], time 14 day) was 14.2%, the PT ([…], time 14 day) was 15.3 s and the Plat ([…], time 14 day) was 117.3 x10_4/uL. It also gave an RBC ([…], time 14 day) of 713.8 x10_4/ul, a Ret ([…], time 14 day) of 4.2% and a WBC ([…], time 14 day) of 117.4 x10_2/uL. The APTT ([…], time 28 day) was 17.8 s, the Bas ([…], time 28 day) was 0.6% and the Eos ([…], time 28 day) was 1.2%. For the same molecule, the Fbg ([…], time 28 day) was 266.6 mg/dL, the Hb ([…], time 28 day) was 15.1 g/dL and the Ht ([…], time 28 day) was 44.6%. The Lym ([…], time 28 day) was 82.2%, the MCH ([…], time 28 day) was 19.1 pg and the MCHC ([…], time 28 day) was 33.7%. For the same molecule, the MCV ([…], time 28 day) was 56.7 fL, the Mono ([…], time 28 day) was 2.2% and the Neu ([…], time 28 day) was 13.4%. For the same molecule, the PT ([…], time 28 day) was 16.4 s, the Plat ([…], time 28 day) was 100.7 x10_4/uL and the RBC ([…], time 28 day) was 787.6 x10_4/ul. It also gave a Ret ([…], time 28 day) of 1.8%, a WBC ([…], time 28 day) of 98.8 x10_2/uL and an ALP ([…], time 7 day) of 1277.2 IU/L. For the same molecule, the ALT ([…], time 7 day) was 38.2 IU/L, the AST ([…], time 7 day) was 61.4 IU/L and the BUN ([…], time 7 day) was 15.6 mg/dL. For the same molecule, the CRE ([…], time 7 day) was 0.2 mg/dL, the DBIL ([…], time 7 day) was 0.018 mg/dL and the GLC ([…], time 7 day) was 179.4 mg/dL. It also gave an IP ([…], time 7 day) of 7.8 mg/dL, a K ([…], time 7 day) of 4 meq/L and a Na ([…], time 7 day) of 142.6 meq/L. The PL ([…], time 7 day) was 168 mg/dL, the RALB ([…], time 7 day) was 2.7 g/dL and the TBIL ([…], time 7 day) was 0.05 mg/dL. It also gave a TC ([…], time 7 day) of 85.6 mg/dL, a TG ([…], time 7 day) of 119.8 mg/dL and a TP ([…], time 7 day) of 5.9 g/dL. It also gave a gamma-GTP ([…], time 7 day) of 0.8 IU/L, an ALP ([…], time 14 day) of 1456.8 IU/L and an ALT ([…], time 14 day) of 43.4 IU/L. It also gave an AST ([…], time 14 day) of 64.6 IU/L, a BUN ([…], time 14 day) of 15.2 mg/dL and a CRE ([…], time 14 day) of 0.2 mg/dL. It also gave a DBIL ([…], time 14 day) of 0.014 mg/dL, a GLC ([…], time 14 day) of 177.8 mg/dL and an IP ([…], time 14 day) of 7.4 mg/dL. The K ([…], time 14 day) was 4.1 meq/L, the Na ([…], time 14 day) was 143.6 meq/L and the PL ([…], time 14 day) was 160.6 mg/dL. It also gave an RALB ([…], time 14 day) of 2.8 g/dL, a TBIL ([…], time 14 day) of 0.046 mg/dL and a TC ([…], time 14 day) of 69.8 mg/dL. For the same molecule, the TG ([…], time 14 day) was 157.2 mg/dL, the TP ([…], time 14 day) was 6.1 g/dL and the gamma-GTP ([…], time 14 day) was 0.6 IU/L. It also gave an ALP ([…], time 28 day) of 1033.8 IU/L, an ALT ([…], time 28 day) of 36.4 IU/L and an AST ([…], time 28 day) of 64.6 IU/L. For the same molecule, the BUN ([…], time 28 day) was 14.4 mg/dL, the CRE ([…], time 28 day) was 0.2 mg/dL and the DBIL ([…], time 28 day) was 0.016 mg/dL. The GLC ([…], time 28 day) was 183.4 mg/dL, the IP ([…], time 28 day) was 6.3 mg/dL and the K ([…], time 28 day) was 3.9 meq/L. For the same molecule, the Na ([…], time 28 day) was 143.8 meq/L, the PL ([…], time 28 day) was 137.2 mg/dL and the RALB ([…], time 28 day) was 2.8 g/dL. It also gave a TBIL ([…], time 28 day) of 0.048 mg/dL, a TC ([…], time 28 day) of 64.8 mg/dL and a TG ([…], time 28 day) of 116.6 mg/dL. It also gave a TP ([…], time 28 day) of 6.2 g/dL and a gamma-GTP ([…], time 28 day) of 0.4 IU/L.
